Results reported in patent publication US11058661B2, “Compositions and methods for lowering triglycerides in a subject on concomitant statin therapy and having hsCRP levels of at least about 2 mg/L” (priority 2018, dated 2021).

Assays:
Assay type in all cases: in vivo, human
[1] = tested on: subjects with Age-Associated Memory Impairment (safety population); assay: AAMI pilot study: safety and tolerability
Description: All randomized subjects that received at least 1 dose of study medication were included in the Safety Population.
Safety evaluations were based on the safety population. Safety and tolerability were assessed in terms of AEs, vital signs, 12-lead ECG, clinical laboratory data, medical history, and study drug compliance. Safety and tolerability data were presented by treatment group.

[2] = tested on: patients with baseline hsCRP ≥2.0 mg/L (safety population); assay: ANCHOR post-hoc subgroup: treatment-emergent adverse events
Text: The evaluation of safety included monitoring of treatment-emergent adverse events (TEAEs), defined as any AEs that began after the first dose of study medication or that worsened in severity during the double-blind treatment period. TEAEs reported herein included total TEAEs and those occurring in 3% […] of patients in any treatment group of the overall ANCHOR study population (i.e., nausea, diarrhea, nasopharyngitis, and arthralgia). The median difference in percent change from baseline between 4 g per day EPA-E and placebo groups for the primary efficacy variable and additional assessments were estimated with the Hodges-Lehmann method (P values from the Wilcoxon rank-sum test for treatment comparisons) where departures from normality were observed; for normally distributed parameters, an ANCOVA model was used with least square means (LS) and standard error (SE). Missing values were imputed using the last-observation-carried-forward method. For all post hoc analyses, the alpha level for statistical significance was 0.05. Safety analyses were based on the safety population (all randomized patients who received at least one dose of the study drug).

[3] = tested on: statin-treated patients with fasting TG ≥200 and <500 mg/dL; assay: ANCHOR study, entire population: fasting TG; details: 4 g/day
Description: A multi-center, placebo-controlled, randomized, double-blind, 12-week study is performed to evaluate the efficacy and safety of >96% E-EPA in patients with fasting triglyceride levels ≥200 mg/dl and <500 mg/dl despite statin therapy (the mean of two qualifying entry values needs to be ≥185 mg/dl and at least one of the values needs to be ≥200 mg/dl). The primary objective of the study is to determine the efficacy of >96% E-EPA 2 g daily and 4 g daily, compared to placebo, in lowering fasting TG levels in patients with high risk for cardiovascular disease and with fasting TG levels ≥200 mg/dL and <500 mg/dL, despite treatment to LDL-C goal on statin therapy.
The population for this study is men and women >18 years of age with a body mass index ≤45 kg/m^2 with fasting TG levels greater than or equal to 200 mg/dl and less than 500 mg/dl and on a stable does of statin therapy (with or without ezetimibe). The statin must be atorvastatin, rosuvastatin or simvastatin. The dose of statin must be stable for ≥4 weeks prior to the LDL-C/TG baseline qualifying measurement for randomization. The statin dose will be optimal such that the patients are at their LDL-C goal at the LDL-C/TG baseline qualifying measurements. The same statin at the same dose will be continued until the study ends. […]

## CC/C=C\C/C=C\C/C=C\C/C=C\C/C=C\CCCC(=O)OCC [Icosapent Ethyl, ethyl eicosapentaenoate]
[1]; 1 g
  subjects with nausea Probably Related to the study drug: One
[1]; 1 g cohort
  subjects with nausea Possibly Related to the study drug: two
[1]; 2 g cohort
  subjects with nausea Possibly Related to the study drug: one
[1]; 2 g group
  subjects discontinued due to TEAEs: 2 subjects
[1]; 2 g group, judged unrelated to study drug
  SAE reported: One
[1]; 4 g
  subjects with diarrhea Probably Related to the study drug: Another subject
[1]; 4 g cohort
  subjects with nausea Possibly Related to the study drug: two
[1]; all ethyl-EPA treatment groups, 6 weeks
  TEAEs reported: 105 events
[1]; all groups
  TEAEs Definitely Related to the study drug: No TEAEs
  deaths during the study: no deaths
[2]; 4 g per day
  patients with arthralgia: 2.3%
  patients with diarrhea: 3.8%
  patients with nasopharyngitis: 0.8%
  patients with nausea: 2.3%
[2]; 4 g per day, 60 of 131
  patients with TEAEs (irrespective of causality): 45.8%
[2]; 4 g per day, subarachnoid hemorrhage, ruptured cerebral aneurysm, brain edema, not considered related
  patients discontinued due to an AE: One
[2]; 4 g/day, n = 131
  Patients With TEAEs: Any TEAE: 60 (45.8) n (%)
  Patients With TEAEs: Arthralgia: 3 (2.3) n (%)
  Patients With TEAEs: Diarrhea: 5 (3.8) n (%)
  Patients With TEAEs: Nasopharyngitis: 1 (0.8) n (%)
  Patients With TEAEs: Nausea: 3 (2.3) n (%)
[3]
  reduction of median TG from baseline compared with placebo: 21.5%
